From patent US20220054493A1, “INHIBITORS OF NGAL PROTEIN” (INSERM (INSTITUT NATIONAL DE LA SANTÉ ET DE LA RECHERCHE …, priority 2019, published 2022)

Test system: aldosterone-induced profibrotic marker synthesis
Assay: Aldosterone-induced profibrotic marker synthesis in human cardiac fibroblasts
Assay type: cell-based
Details: FIGS. 1 and 2 panel D
Description: Cell Culture Human cardiac fibroblasts (primary culture) were obtained from Promocell and maintained in medium (Fibroblast Media 3). Cells were cultured according to the manufacturer's instructions and used between passages 5 and 7. Cells were stimulated with aldosterone (10^-8 M, Sigma) or recombinant hNGAL (500 ng/mL, R&D Systems) for 24 h for protein analysis. Mouse kidney fibroblasts (MKF), were isolated from Wild Type (WT) mice. Briefly, mice 7 to 8 weeks were sacrificed by cervical dislocation and kidneys were cleaned and rinsed in cold DPBS (Dulbecco's Phosphate-Buffered Saline). […]
Total protein aliquots of 20 μg were prepared from cardiac homogenates and electrophoresed on SDS polyacrylamide gels and transferred to Hybond-c Extra nitrocellulose membranes (Amersham Biosciences). […] After densitometric analyses, optical density values were expressed as arbitrary units. Results are expressed as an n-fold increase over the values of the control group in densitometric arbitrary units.
NGAL, IL6 and collagen type I concentrations were measured in cardiac tissue and cell supernatants, respectively, by ELISA according to the manufacturer's instructions (R&D Systems).
The inhibitory activity of the compounds was evaluated on the NGAL-induced IL6 secretion (NGAL 10 ng/ml) in human cardiac fibroblasts. […]

Question: Which “aldosterone-induced profibrotic marker (Col1, CT-1, or IL6) synthesis” value does the source give for `CC(=O)c1cccc(S(=O)(=O)NCc2ccccc2-n2cccn2)c1` [GPZ614741] here?
Answer: inhibited
